According to patent US20230270713A1, “Administration of Resiniferatoxin For Treatment of Bladder Pain or Bladder Cancer” (Sorrento Therapeutics, Inc., priority 2020, published 2023):
Several values for one entry are separate records, joined by “and”; a condition that tells them apart may be missing. Identical values can stand only once. Like-named read-outs stand apart in the source and are kept apart here.

Assay: Pharmacokinetic/toxicokinetic profile of RTX after intravesical instillation in dogs
Assay type: in vivo, dog
Protocol: Local tolerance and the pharmacokinetic (PK), and toxicokinetic (TK) profile of RTX in dogs was determined after a single instillation of RTX into the bladder of dogs (n=6). The RTX formulations were prepared using aseptic techniques in a biological safety cabinet (BSC) by mixing the appropriate amount of diluent with the appropriate amount of RTX. Dosing formulation concentrations used were 1 and 10 mcg/mL.
Three male and three female dogs ranging in weight from 5.95 to 8.60 kg were used in the study. The dogs were assigned into Group 1 (receiving a dose of 1 mcg/mL RTX) or Group 2 (receiving a dose of 10 mcg/mL RTX) as shown in the Table 3 below.
RTX was administered via intravesical instillation into the urinary bladder. The animals were given a single dose of 25 or 250 mcg/dose in a total volume of 25 mL on Day 1 over a period of 1 hour (±5 minutes). RTX and diluent were administered to the dogs under general anesthesia via a Foley catheter placed into the bladder for 1 hour (±5 minutes).
Blood samples were collected from all animals on Day 1 pre-dose and at 0.5, 1, 2, 4, 6, 12, 24, 36, 48, 60, and 72 hours post-dose. The toxicokinetic (TK) parameters were determined for RTX, and if appropriate, the metabolites, from mean concentration-time data.
Cmax is the observed maximum plasma concentration from the start of dosing. Tmax is the time to reach the Cmax. AUC(0-T) is the area under the plasma concentration-time curve from time zero to the last measurable time point calculated by the linear trapezoidal rule.

[1] = female dogs 1004, 1006 individual, 250 mcg intravesical
[2] = female dogs, 250 mcg intravesical

SMILES: C=C(C)[C@]12C[C@@H](C)[C@@]34O[C@](Cc5ccccc5)(O[C@@H]1[C@@H]3C=C(COC(=O)Cc1ccc(O)c(OC)c1)C[C@]1(O)C(=O)C(C)=C[C@@H]41)O2 [RTX, resiniferatoxin]
- concentration at 2 h (both sexes, dog, plasma, other: intravesical instillation, 25 mcg, Group 1 dogs, 25 mL at 1 mcg/mL (25 mcg/dose), 2 hours post-dosing, male and female dog, read-out: plasma concentrations for RTX): < 0.05 ng/mL
- AUC(0-T) Ratio (Male/Female) (dogs, 250 mcg intravesical): 1.23
- Cmax Ratio (Male/Female) (dogs, 250 mcg intravesical): 1.28
- RTX exposure in males compared with females (dogs, 250 mcg intravesical): similar
- Plasma concentration of RTX (female dog 1002, 25 mcg intravesical, 2 h): BQL (*BQL—Below quantifiable limit (<50.0 pg/mL); adequate signal-to-noise enabled reporting value as estimate)
- Plasma concentration of RTX (female dog 1002, 25 mcg intravesical, 4 h): BQL (*BQL—Below quantifiable limit (<50.0 pg/mL); adequate signal-to-noise enabled reporting value as estimate)
- Plasma concentration of RTX (female dog 1002, 25 mcg intravesical, 6 h): BQL (*BQL—Below quantifiable limit (<50.0 pg/mL); adequate signal-to-noise enabled reporting value as estimate)
- Plasma concentration of RTX (female dog 1002, 25 mcg intravesical, 12 h): BQL (*BQL—Below quantifiable limit (<50.0 pg/mL); adequate signal-to-noise enabled reporting value as estimate)
- Plasma concentration of RTX (female dog 1002, 25 mcg intravesical, 24 h): BQL (*BQL—Below quantifiable limit (<50.0 pg/mL); adequate signal-to-noise enabled reporting value as estimate)
- Plasma concentration of RTX (female dog 1002, 25 mcg intravesical, 36 h): BQL (*BQL—Below quantifiable limit (<50.0 pg/mL); adequate signal-to-noise enabled reporting value as estimate)
- Plasma concentration of RTX (female dog 1002, 25 mcg intravesical, 48 h): BQL (*BQL—Below quantifiable limit (<50.0 pg/mL); adequate signal-to-noise enabled reporting value as estimate)
- Plasma concentration of RTX (female dog 1002, 25 mcg intravesical, 60 h): BQL (*BQL—Below quantifiable limit (<50.0 pg/mL); adequate signal-to-noise enabled reporting value as estimate)
- Plasma concentration of RTX (female dog 1002, 25 mcg intravesical, 72 h): BQL (*BQL—Below quantifiable limit (<50.0 pg/mL); adequate signal-to-noise enabled reporting value as estimate)
- Plasma concentration of RTX (female dog 1002, 25 mcg intravesical, Predose): BQL (*BQL—Below quantifiable limit (<50.0 pg/mL); adequate signal-to-noise enabled reporting value as estimate)
- AUC(0-T) [1]: 0.441 ng·h/mL and 0.146 ng·h/mL
- AUC(0-T)/Dose [1]: 1.76 pg·h/mL/µg and 0.584 pg·h/mL/µg
- Cmax [1]: 0.388 ng/mL and 0.16 ng/mL
- Cmax/Dose [1]: 1.55 pg/mL/µg and 0.640 pg/mL/µg
- Plasma concentration of RTX (female dogs 1004, 1006 individual, 250 mcg intravesical, 0.5 h): 0.388 ng/mL and 0 ng/mL
- Plasma concentration of RTX (female dogs 1004, 1006 individual, 250 mcg intravesical, 1 h): 0.16 ng/mL
- Plasma concentration of RTX (female dogs 1004, 1006 individual, 250 mcg intravesical, 2 h): 0.0511 ng/mL
- Plasma concentration of RTX (female dogs 1004, 1006 individual, 250 mcg intravesical, 4 h): 0 ng/mL
- Plasma concentration of RTX (female dogs 1004, 1006 individual, 250 mcg intravesical, 6 h): 0 ng/mL
- Plasma concentration of RTX (female dogs 1004, 1006 individual, 250 mcg intravesical, 12 h): 0 ng/mL
- Plasma concentration of RTX (female dogs 1004, 1006 individual, 250 mcg intravesical, 24 h): 0 ng/mL
- Plasma concentration of RTX (female dogs 1004, 1006 individual, 250 mcg intravesical, 36 h): 0 ng/mL
- Plasma concentration of RTX (female dogs 1004, 1006 individual, 250 mcg intravesical, 48 h): 0 ng/mL
- Plasma concentration of RTX (female dogs 1004, 1006 individual, 250 mcg intravesical, 60 h): 0 ng/mL
- Plasma concentration of RTX (female dogs 1004, 1006 individual, 250 mcg intravesical, 72 h): 0 ng/mL
- Plasma concentration of RTX (female dogs 1004, 1006 individual, 250 mcg intravesical, Predose): 0 ng/mL
- AUC(0-T)/Dose, Mean [2]: 1.18 pg·h/mL/µg
- Cmax/Dose, Mean [2]: 1.10 pg/mL/µg
- Plasma concentration of RTX, Mean (female dogs, 250 mcg intravesical, Predose): 0 ng/mL
- Tmax (female, dog, plasma, 250 ug, female dogs 1004, 1006 individual, 250 mcg intravesical, read-out: Tmax): 30 min
- Tmax (female, dog, plasma, 250 ug, female dogs, 250 mcg intravesical, read-out: Tmax, Mean): 45 ± 21.2 min
- concentration at 60 h (female, dog, plasma, other: intravesical instillation into the urinary bladder, 250 mcg, female dogs 1004, 1006 individual, 250 mcg intravesical, 60 h, read-out: Plasma concentration of RTX): 0 ng/mL
- concentration at 72 h (female, dog, plasma, other: intravesical instillation into the urinary bladder, 250 mcg, female dogs 1004, 1006 individual, 250 mcg intravesical, 72 h, read-out: Plasma concentration of RTX): 0 ng/mL
- concentration at 0.5 h (female, dog, plasma, other: intravesical instillation into the urinary bladder, 250 mcg, female dogs, 250 mcg intravesical, 0.5 h, read-out: Plasma concentration of RTX, Mean): 0.194 ng/mL
- concentration at 60 h (female, dog, plasma, other: intravesical instillation into the urinary bladder, 250 mcg, female dogs, 250 mcg intravesical, 60 h, read-out: Plasma concentration of RTX, Mean): 0 ng/mL
- concentration at 72 h (female, dog, plasma, other: intravesical instillation into the urinary bladder, 250 mcg, female dogs, 250 mcg intravesical, 72 h, read-out: Plasma concentration of RTX, Mean): 0 ng/mL
- AUC(0-t) (female, dog, plasma, other: intravesical instillation, 250 ug, female dogs, 250 mcg intravesical, read-out: AUC(0-T), Mean): 0.294 ± 0.209 ng·h/mL
- Cmax (female, dog, plasma, other: intravesical instillation, 250 ug, female dogs, 250 mcg intravesical, read-out: Cmax, Mean): 0.274 ± 0.161 ng/mL
- Tmax (female, dog, plasma, other: intravesical instillation, 250 ug, female dogs, 250 mcg intravesical, read-out: Tmax, Mean): 45 min
- concentration at 0.5 h (female, dog, plasma, other: intravesical instillation, 25 mcg, female dog 1002, 25 mcg intravesical, 0.5 h, read-out: Plasma concentration of RTX): 0.0392 ng/mL
- concentration at 1 h (female, dog, plasma, other: intravesical instillation, 25 mcg, female dog 1002, 25 mcg intravesical, 1 h, read-out: Plasma concentration of RTX): 0.0203 ng/mL
- concentration at 1 h (female, dog, plasma, other: intravesical instillation, 250 mcg, female dogs 1004, 1006 individual, 250 mcg intravesical, 1 h, read-out: Plasma concentration of RTX): 0.289 ng/mL
- concentration at 2 h (female, dog, plasma, other: intravesical instillation, 250 mcg, female dogs 1004, 1006 individual, 250 mcg intravesical, 2 h, read-out: Plasma concentration of RTX): 0.0602 ng/mL
- concentration at 4 h (female, dog, plasma, other: intravesical instillation, 250 mcg, female dogs 1004, 1006 individual, 250 mcg intravesical, 4 h, read-out: Plasma concentration of RTX): 0 ng/mL
- concentration at 6 h (female, dog, plasma, other: intravesical instillation, 250 mcg, female dogs 1004, 1006 individual, 250 mcg intravesical, 6 h, read-out: Plasma concentration of RTX): 0 ng/mL
- concentration at 12 h (female, dog, plasma, other: intravesical instillation, 250 mcg, female dogs 1004, 1006 individual, 250 mcg intravesical, 12 h, read-out: Plasma concentration of RTX): 0 ng/mL
- concentration at 24 h (female, dog, plasma, other: intravesical instillation, 250 mcg, female dogs 1004, 1006 individual, 250 mcg intravesical, 24 h, read-out: Plasma concentration of RTX): 0 ng/mL
- concentration at 36 h (female, dog, plasma, other: intravesical instillation, 250 mcg, female dogs 1004, 1006 individual, 250 mcg intravesical, 36 h, read-out: Plasma concentration of RTX): 0 ng/mL
- concentration at 48 h (female, dog, plasma, other: intravesical instillation, 250 mcg, female dogs 1004, 1006 individual, 250 mcg intravesical, 48 h, read-out: Plasma concentration of RTX): 0 ng/mL
- concentration at 1 h (female, dog, plasma, other: intravesical instillation, 250 mcg, female dogs, 250 mcg intravesical, 1 h, read-out: Plasma concentration of RTX, Mean): 0.225 ng/mL
- concentration at 2 h (female, dog, plasma, other: intravesical instillation, 250 mcg, female dogs, 250 mcg intravesical, 2 h, read-out: Plasma concentration of RTX, Mean): 0.0557 ng/mL
- concentration at 4 h (female, dog, plasma, other: intravesical instillation, 250 mcg, female dogs, 250 mcg intravesical, 4 h, read-out: Plasma concentration of RTX, Mean): 0 ng/mL
- concentration at 6 h (female, dog, plasma, other: intravesical instillation, 250 mcg, female dogs, 250 mcg intravesical, 6 h, read-out: Plasma concentration of RTX, Mean): 0 ng/mL
- concentration at 12 h (female, dog, plasma, other: intravesical instillation, 250 mcg, female dogs, 250 mcg intravesical, 12 h, read-out: Plasma concentration of RTX, Mean): 0 ng/mL
- concentration at 24 h (female, dog, plasma, other: intravesical instillation, 250 mcg, female dogs, 250 mcg intravesical, 24 h, read-out: Plasma concentration of RTX, Mean): 0 ng/mL
- concentration at 36 h (female, dog, plasma, other: intravesical instillation, 250 mcg, female dogs, 250 mcg intravesical, 36 h, read-out: Plasma concentration of RTX, Mean): 0 ng/mL
- concentration at 48 h (female, dog, plasma, other: intravesical instillation, 250 mcg, female dogs, 250 mcg intravesical, 48 h, read-out: Plasma concentration of RTX, Mean): 0 ng/mL
